Source: ChEMBL document CHEMBL3885881, “DrugMatrix”

Organism: Rattus norvegicus
Experiment: DrugMatrix - Regimen: Daily Repeat
Assay type: toxicity, organism-based, Sprague-Dawley
Set-up: regimen Daily Repeat, gender Male, age 6-8 weeks
Conditions: in vivo, po, route oral GAVAGE, vehicle .5 % CMC; for ABSOLUTE BASOPHIL / ABSOLUTE EOSINOPHIL / ABSOLUTE LYMPHOCYTE / ABSOLUTE MONOCYTE / ABSOLUTE SEGMENTED NEUTROPHIL / BASOPHIL / EOSINOPHIL / ERYTHROCYTE COUNT / HEMATOCRIT / HEMOGLOBIN / LEUKOCYTE COUNT / LYMPHOCYTE / MEAN CORPUSCULAR HEMOGLOBIN / MEAN CORPUSCULAR HEMOGLOBIN CONCENTRATION / MEAN CORPUSCULAR VOLUME / MONOCYTE / NEUTROPHIL / NUCLEATED RED BLOOD CELLS / PLATELET COUNT: tissue Blood; for ALANINE AMINOTRANSFERASE / ALBUMIN / ALKALINE PHOSPHATASE / ASPARTATE AMINOTRANSFERASE / BLOOD UREA NITROGEN / CARBON DIOXIDE / CHLORIDE / CHOLESTEROL / CREATINE PHOSPHOKINASE / CREATININE / GLUCOSE / LACTATE DEHYDROGENASE / LIPASE / PHOSPHORUS / POTASSIUM / SODIUM / TOTAL BILIRUBIN / TOTAL PROTEIN / URIC ACID: tissue Plasma
[1] = 100 mg/kg, 72 h, dose level Low, time 3 day
[2] = 100 mg/kg, 120 h, dose level Low, time 5 day
[3] = 2000 mg/kg, 72 h, dose level High, time 3 day
[4] = 2000 mg/kg, 120 h, dose level High, time 5 day

For `C#C[C@]1(O)CC[C@H]2[C@@H]3CCC4=Cc5oncc5C[C@]4(C)[C@H]3CC[C@@]21C` [DANAZOL], the “ABSOLUTE BASOPHIL” value [1] was 0 CELLS/uL, the “ABSOLUTE EOSINOPHIL” value [1] was 39 CELLS/uL and the “ABSOLUTE LYMPHOCYTE” value [1] was 10714 CELLS/uL. The “ABSOLUTE MONOCYTE” value [1] was 124 CELLS/uL, the “ABSOLUTE SEGMENTED NEUTROPHIL” value [1] was 1823 CELLS/uL and the BASOPHIL [1] was 0%. For the same molecule, the EOSINOPHIL [1] was 0.33%, the “ERYTHROCYTE COUNT” value [1] was 5.54 x10E6/uL and the HEMATOCRIT [1] was 34.17%. For the same molecule, the HEMOGLOBIN [1] was 13.43 G/DL, the “LEUKOCYTE COUNT” value [1] was 12.7 x10E3/uL and the LYMPHOCYTE [1] was 84.33%. For the same molecule, the “MEAN CORPUSCULAR HEMOGLOBIN” value [1] was 24.3 pg, the “MEAN CORPUSCULAR HEMOGLOBIN CONCENTRATION” value [1] was 39.3 G/DL and the “MEAN CORPUSCULAR VOLUME” value [1] was 61.77 fL. For the same molecule, the MONOCYTE [1] was 1%, the NEUTROPHIL [1] was 14.33% and the “NUCLEATED RED BLOOD CELLS” value [1] was 0 /100WBC. For the same molecule, the “PLATELET COUNT” value [1] was 1192.67 x10E3/uL, the “ALANINE AMINOTRANSFERASE” value [1] was 44.33 u/L and the ALBUMIN [1] was 4.17 G/DL. The “ALKALINE PHOSPHATASE” value [1] was 377 u/L, the “ASPARTATE AMINOTRANSFERASE” value [1] was 76.33 u/L and the “BLOOD UREA NITROGEN” value [1] was 14.67 mg/dL. The “CARBON DIOXIDE” value [1] was 25.33 mmol/L, the CHLORIDE [1] was 102 MEQ/L and the CHOLESTEROL [1] was 55 mg/dL. For the same molecule, the “CREATINE PHOSPHOKINASE” value [1] was 401.33 u/L, the CREATININE [1] was 0.17 mg/dL and the GLUCOSE [1] was 163.33 mg/dL. The “LACTATE DEHYDROGENASE” value [1] was 137 u/L, the LIPASE [1] was 10 u/L and the PHOSPHORUS [1] was 12.07 mg/dL. For the same molecule, the POTASSIUM [1] was 6.65 MEQ/L, the SODIUM [1] was 143.7 MEQ/L and the “TOTAL BILIRUBIN” value [1] was 0.2 mg/dL. For the same molecule, the “TOTAL PROTEIN” value [1] was 5.97 G/DL, the “URIC ACID” value [1] was 1.73 mg/dL and the “ABSOLUTE BASOPHIL” value [2] was 0 CELLS/uL. For the same molecule, the “ABSOLUTE EOSINOPHIL” value [2] was 63 CELLS/uL, the “ABSOLUTE LYMPHOCYTE” value [2] was 13104.67 CELLS/uL and the “ABSOLUTE MONOCYTE” value [2] was 130.33 CELLS/uL. The “ABSOLUTE SEGMENTED NEUTROPHIL” value [2] was 1568.67 CELLS/uL, the BASOPHIL [2] was 0% and the EOSINOPHIL [2] was 0.33%. For the same molecule, the “ERYTHROCYTE COUNT” value [2] was 5.51 x10E6/uL, the HEMATOCRIT [2] was 33.67% and the HEMOGLOBIN [2] was 13.33 G/DL. The “LEUKOCYTE COUNT” value [2] was 14.87 x10E3/uL, the LYMPHOCYTE [2] was 88% and the “MEAN CORPUSCULAR HEMOGLOBIN” value [2] was 24.2 pg. For the same molecule, the “MEAN CORPUSCULAR HEMOGLOBIN CONCENTRATION” value [2] was 39.57 G/DL, the “MEAN CORPUSCULAR VOLUME” value [2] was 61.07 fL and the MONOCYTE [2] was 1%. The NEUTROPHIL [2] was 10.67%, the “NUCLEATED RED BLOOD CELLS” value [2] was 0 /100WBC and the “PLATELET COUNT” value [2] was 1135.67 x10E3/uL. The “ALANINE AMINOTRANSFERASE” value [2] was 59.67 u/L, the ALBUMIN [2] was 4.07 G/DL and the “ALKALINE PHOSPHATASE” value [2] was 404 u/L. For the same molecule, the “ASPARTATE AMINOTRANSFERASE” value [2] was 88.67 u/L, the “BLOOD UREA NITROGEN” value [2] was 15.67 mg/dL and the “CARBON DIOXIDE” value [2] was 28 mmol/L. For the same molecule, the CHLORIDE [2] was 99.67 MEQ/L, the CHOLESTEROL [2] was 47.67 mg/dL and the “CREATINE PHOSPHOKINASE” value [2] was 326.33 u/L. The CREATININE [2] was 0.2 mg/dL, the GLUCOSE [2] was 144 mg/dL and the “LACTATE DEHYDROGENASE” value [2] was 320.33 u/L. It also gave an LIPASE [2] of 9 u/L, a PHOSPHORUS [2] of 10.93 mg/dL and a POTASSIUM [2] of 6.55 MEQ/L. For the same molecule, the SODIUM [2] was 142.4 MEQ/L, the “TOTAL BILIRUBIN” value [2] was 0.23 mg/dL and the “TOTAL PROTEIN” value [2] was 5.87 G/DL. For the same molecule, the “URIC ACID” value [2] was 1.63 mg/dL, the “ABSOLUTE BASOPHIL” value [3] was 0 CELLS/uL and the “ABSOLUTE EOSINOPHIL” value [3] was 36.33 CELLS/uL. The “ABSOLUTE LYMPHOCYTE” value [3] was 8482.33 CELLS/uL, the “ABSOLUTE MONOCYTE” value [3] was 63 CELLS/uL and the “ABSOLUTE SEGMENTED NEUTROPHIL” value [3] was 1351.67 CELLS/uL. The BASOPHIL [3] was 0%, the EOSINOPHIL [3] was 0.33% and the “ERYTHROCYTE COUNT” value [3] was 6.02 x10E6/uL. For the same molecule, the HEMATOCRIT [3] was 35.6%, the HEMOGLOBIN [3] was 13.97 G/DL and the “LEUKOCYTE COUNT” value [3] was 9.93 x10E3/uL. The LYMPHOCYTE [3] was 85.33%, the “MEAN CORPUSCULAR HEMOGLOBIN” value [3] was 23.23 pg and the “MEAN CORPUSCULAR HEMOGLOBIN CONCENTRATION” value [3] was 39.23 G/DL. For the same molecule, the “MEAN CORPUSCULAR VOLUME” value [3] was 59.17 fL, the MONOCYTE [3] was 0.67% and the NEUTROPHIL [3] was 13.67%. The “NUCLEATED RED BLOOD CELLS” value [3] was 0 /100WBC, the “PLATELET COUNT” value [3] was 1115.33 x10E3/uL and the “ALANINE AMINOTRANSFERASE” value [3] was 54.67 u/L. For the same molecule, the ALBUMIN [3] was 4.13 G/DL, the “ALKALINE PHOSPHATASE” value [3] was 331 u/L and the “ASPARTATE AMINOTRANSFERASE” value [3] was 125.67 u/L. For the same molecule, the “BLOOD UREA NITROGEN” value [3] was 18 mg/dL, the “CARBON DIOXIDE” value [3] was 30 mmol/L and the CHLORIDE [3] was 99.67 MEQ/L. The CHOLESTEROL [3] was 51.67 mg/dL, the “CREATINE PHOSPHOKINASE” value [3] was 222.33 u/L and the CREATININE [3] was 0.15 mg/dL. The GLUCOSE [3] was 144.67 mg/dL, the “LACTATE DEHYDROGENASE” value [3] was 126.33 u/L and the LIPASE [3] was 10 u/L. It also gave a PHOSPHORUS [3] of 12 mg/dL, a POTASSIUM [3] of 6.6 MEQ/L and an SODIUM [3] of 143.8 MEQ/L. For the same molecule, the “TOTAL BILIRUBIN” value [3] was 0.17 mg/dL, the “TOTAL PROTEIN” value [3] was 6.13 G/DL and the “URIC ACID” value [3] was 1.7 mg/dL. The “ABSOLUTE BASOPHIL” value [4] was 0 CELLS/uL, the “ABSOLUTE EOSINOPHIL” value [4] was 32.33 CELLS/uL and the “ABSOLUTE LYMPHOCYTE” value [4] was 11456 CELLS/uL. For the same molecule, the “ABSOLUTE MONOCYTE” value [4] was 0 CELLS/uL, the “ABSOLUTE SEGMENTED NEUTROPHIL” value [4] was 1345 CELLS/uL and the BASOPHIL [4] was 0%. The EOSINOPHIL [4] was 0.33%, the “ERYTHROCYTE COUNT” value [4] was 5.94 x10E6/uL and the HEMATOCRIT [4] was 35.4%. For the same molecule, the HEMOGLOBIN [4] was 14 G/DL, the “LEUKOCYTE COUNT” value [4] was 12.83 x10E3/uL and the LYMPHOCYTE [4] was 88.67%. The “MEAN CORPUSCULAR HEMOGLOBIN” value [4] was 23.57 pg, the “MEAN CORPUSCULAR HEMOGLOBIN CONCENTRATION” value [4] was 39.57 G/DL and the “MEAN CORPUSCULAR VOLUME” value [4] was 59.5 fL. The MONOCYTE [4] was 0%, the NEUTROPHIL [4] was 11% and the “NUCLEATED RED BLOOD CELLS” value [4] was 0 /100WBC. For the same molecule, the “PLATELET COUNT” value [4] was 1399.33 x10E3/uL, the “ALANINE AMINOTRANSFERASE” value [4] was 62.67 u/L and the ALBUMIN [4] was 4.17 G/DL. The “ALKALINE PHOSPHATASE” value [4] was 326.67 u/L, the “ASPARTATE AMINOTRANSFERASE” value [4] was 68 u/L and the “BLOOD UREA NITROGEN” value [4] was 18.67 mg/dL. For the same molecule, the “CARBON DIOXIDE” value [4] was 28.33 mmol/L, the CHLORIDE [4] was 99.33 MEQ/L and the CHOLESTEROL [4] was 45.33 mg/dL. The “CREATINE PHOSPHOKINASE” value [4] was 147.33 u/L, the CREATININE [4] was 0.18 mg/dL and the GLUCOSE [4] was 140.67 mg/dL. The “LACTATE DEHYDROGENASE” value [4] was 121 u/L, the LIPASE [4] was 10 u/L and the PHOSPHORUS [4] was 12.37 mg/dL. For the same molecule, the POTASSIUM [4] was 6.84 MEQ/L, the SODIUM [4] was 145.03 MEQ/L and the “TOTAL BILIRUBIN” value [4] was 0.2 mg/dL. The “TOTAL PROTEIN” value [4] was 6.73 G/DL and the “URIC ACID” value [4] was 1.6 mg/dL.
